# Columns and labels:
# oral microorganisms = assay: Acid production inhibition in vitro (summary); assay type: cell-based; settings: in words, summary of tables
# Description: Other in vitro evaluations utilized a broth tube analysis of representative anticaries aldehydes incorporated in the vehicles of this invention against cultures of acid producing microorganisms normally present in the mouth. Standard laboratory procedures were utilized throughout to evaluate the acid production inhibition and growth inhibition over the incubation time of up to 24 hours.
# [1] = tested on: Lactobacillus casei ATCC 4646; assay: Growth inhibition by aldehydes in product vehicles, pour-plate technique; assay type: cell-based; settings: 1 to 5 percent aldehyde
# Summary of the method: (§1)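 Aldehydes (1 to 5 percent by weight) were formulated into syrups, candies, mouthwash, toothpaste or toothpowder, added directly or as aqueous extracts to medium without a carbon source mixed 1:1 with filter-sterilized human saliva. Sugar came from the product or added sucrose. Growth over up to 24 hours was read by pour-plate count.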
# [2] = tested on: Mixed human oral microorganisms; assay: as above; assay type: cell-based; settings: 1 to 5 percent aldehyde
# Summary of the method: as §1
# Streptococcus sp. FA-1 = assay: Acid production inhibition, broth-tube technique; settings: single agent
# Description: (§7) The data was compiled through well-known broth tube analysis techniques.
# (a)Measured by broth-tube technique.
# [3] = In vivo caries evaluation, albino hamster; settings: Table I, 56 days
# Text: (§2) Standard laboratory techniques were used to complie the data presented. In each case the aldehyde was incorporated into each specimen's food in a one percent, by weight, quantity, over a period of several weeks. In all cases, caries reduction was noted.
# (§3) The aldehydes tested in vivo were pyruvaldehyde, d,1-glyceraldehyde, crystalline dimer, glycolaldehyde, octanaldehyde, nonanaldehyde, decanaldehyde, undecylenic aldehyde, and lauric aldehyde. The polyaldehydes tested were dialdehyde starch, dialdehyde starch 50 percent oxidized, dialdehyde starch 90 percent oxidized, and dialdehyde galactomannan gum.
# (§4) ^(a) Agents were incorporated in the diet at a 1 percent level.
# [4] = tested on: Mixed Oral Microorganisms; assay: Acid production inhibition, broth-tube technique; settings: single agent
# Description: as §7
# (a)Measured by broth-tube technique.
# [5] = tested on: Lactobacillus casei and Streptococcus sp. FA-1; assay: Acid-production inhibition by broth-tube assay, 0.1 percent of compound; assay type: cell-based; settings: Table X; 0.1 percent of compound; read-out: Activity, Acid-Production Inhibition%
# Description: ^(a) Activity was measured by broth-tube assay to determine percent
# (§5) acid-production inhibition obtained by Lactobacillus casei and
# Streptococcus sp. FA-1 in the presence of 0.1 percent of compound.
# ^(a) Activity was measured by broth-tube assay to determine percent o
# as §5
# Streptococcus sp. FA-1 in the presence of 0.1% of compound. Symbols
# Streptococcus spp. FA-1 = assay: Growth inhibition of oral microorganisms in vitro, pour plates; assay type: cell-based; settings: Table IX
# Description: (§6) (a)Determined on freshly grown pure cultures. Pour plates were incubated
# L. casei = assay: as above; assay type: cell-based, Lactobacillus casei; settings: Table IX
# Description: as §6
# [6] = In vivo caries evaluation, Osborne-Mendel strain 2 rat; design: species or system rat (Osborne-Mendel strain 2); settings: Table I, 90 days
# Text: as §2, §3, §4
# [7] = in compressed candy tablet, 2 h incubation
# [8] = in compressed candy tablet, 5 h incubation
# [9] = in compressed candy tablet, 24 h incubation
# [10] = in dextrose syrup, 2 h incubation
# [11] = in dextrose syrup, 5 h incubation
# [12] = in dextrose syrup, 24 h incubation
# [13] = in sucrose syrup, 2 h incubation
# [14] = in sucrose syrup, 5 h incubation
# [15] = in sucrose syrup, 24 h incubation
# [16] = in tooth powder (aqueous extract), 2 h incubation
# [17] = in tooth powder (aqueous extract), 5 h incubation
# [18] = in tooth powder (aqueous extract), 24 h incubation
# [19] = in toothpaste (aqueous extract), 2 h incubation
# [20] = in toothpaste (aqueous extract), 5 h incubation
# [21] = in toothpaste (aqueous extract), 24 h incubation
# [22] = Student's test, 95 percent confidence limit
# [23] = pour plates incubated 48 - 72 hours
smiles,measurement,setting,value
"O=C[C@H](O)CO (racemic) [d,1-Glyceraldehyde]",Acid Production Inhibition,oral microorganisms,excellent acid production inhibition
same,Growth Inhibition,[1]; [7],N.S.
same,Growth Inhibition,[1]; [8],N.S.
same,Growth Inhibition,[1]; [9],100 Per Cent
same,Growth Inhibition,[1]; [10],N.S.
same,Growth Inhibition,[1]; [11],N.S.
same,Growth Inhibition,[1]; [12],> 99.99 Per Cent
same,Growth Inhibition,[1]; [13],0 Per cent
same,Growth Inhibition,[1]; [14],N.S.
same,Growth Inhibition,[1]; [15],99 Per cent
same,Growth Inhibition,[1]; [16],N.S.
same,Growth Inhibition,[1]; [17],N.S.
same,Growth Inhibition,[1]; [18],99.3 Per cent
same,Growth Inhibition,[1]; [19],N.S.
same,Growth Inhibition,[1]; [20],N.S.
same,Growth Inhibition,[1]; [21],100 Per cent
same,Growth Inhibition,[2]; [7],99.7 Per Cent
same,Growth Inhibition,[2]; [8],99.99 Per Cent
same,Growth Inhibition,[2]; [9],N.S.
same,Growth Inhibition,[2]; [10],97.5 Per Cent
same,Growth Inhibition,[2]; [11],> 99.99 Per Cent
same,Growth Inhibition,[2]; [12],0 Per Cent
same,Growth Inhibition,"[2]; in mouthwash, 2 h incubation",95.0 Per cent
same,Growth Inhibition,"[2]; in mouthwash, 5 h incubation",99.98 Per cent
same,Growth Inhibition,"[2]; in mouthwash, 24 h incubation",N.S.
same,Growth Inhibition,[2]; [13],96 Per cent
same,Growth Inhibition,[2]; [14],99.6 Per cent
same,Growth Inhibition,[2]; [15],0 Per cent
same,Growth Inhibition,[2]; [16],N.S.
same,Growth Inhibition,[2]; [17],99.3 Per cent
same,Growth Inhibition,[2]; [18],N.S.
same,Growth Inhibition,[2]; [19],97 Per cent
same,Growth Inhibition,[2]; [20],N.S.
same,Growth Inhibition,[2]; [21],100 Per cent
same,Acid Production Inhibition,Streptococcus sp. FA-1; 0.01 percent,4%
same,Acid Production Inhibition,Streptococcus sp. FA-1; 0.015 percent,10%
same,Acid Production Inhibition,Streptococcus sp. FA-1; 0.02 percent,21%
same,"Caries Score, Mean Incidence","[3]; 1 percent in diet, L-2000 control 27.5",8.0
same,"Caries Score, Mean Extent","[3]; 1 percent in diet, L-2000 control 80.9",21.8
same,"Caries Extent Reduction, statistical evaluation",[3]; [22],Significant
same,"Caries Incidence Reduction, statistical evaluation",[3]; [22],Significant
same,Acid Production Inhibition,[4]; 0.03 percent,7%
same,Acid Production Inhibition,[4]; 0.04 percent,12%
same,Acid Production Inhibition,[4]; 0.05 percent,19%
same,Acid Production Inhibition,[4]; 0.06 percent,30%
same,Acid Production Inhibition,[4]; 0.07 percent,40%
CCCCCCCCCC=O [Decanaldehyde],inhibition at 0.1 %,[5],99 to 100%
same,Growth Inhibition,[1]; [7],99.98 Per Cent
same,Growth Inhibition,[1]; [8],100 Per Cent
same,Growth Inhibition,[1]; [9],100 Per Cent
same,Growth Inhibition,[1]; [10],99.7 Per Cent
same,Growth Inhibition,[1]; [11],100 Per Cent
same,Growth Inhibition,[1]; [12],100 Per Cent
same,Growth Inhibition,[1]; [13],99.5 Per cent
same,Growth Inhibition,[1]; [14],> 99.9 Per cent
same,Growth Inhibition,[1]; [15],> 99.99 Per cent
same,Growth Inhibition,[1]; [19],0 Per cent
same,Growth Inhibition,[1]; [20],N.S.
same,Growth Inhibition,[1]; [21],0 Per cent
same,Growth Inhibition,[2]; [7],> 99.99 Per Cent
same,Growth Inhibition,[2]; [8],> 99.99 Per Cent
same,Growth Inhibition,[2]; [9],100 Per Cent
same,Growth Inhibition,[2]; [10],> 99.99 Per Cent
same,Growth Inhibition,[2]; [11],100 Per Cent
same,Growth Inhibition,[2]; [12],100 Per Cent
same,Growth Inhibition,[2]; [13],> 99.99 Per cent
same,Growth Inhibition,[2]; [14],> 99.99 Per cent
same,Growth Inhibition,[2]; [15],N.S.
same,Growth Inhibition,[2]; [19],N.S.
same,Growth Inhibition,[2]; [20],N.S.
same,Growth Inhibition,[2]; [21],0 Per cent
same,"Bacterial Population, Experimental",Streptococcus spp. FA-1; control 2 × 10^8 to 5 × 10^8,0
same,Inhibition (growth),Streptococcus spp. FA-1; [23],100%
same,"Bacterial Population, Experimental",L. casei; control 8 × 10^8 to 1 × 10^9,4 × 10^2
same,Inhibition (growth),L. casei; [23],> 99.99%
O=CCO [Glycolaldehyde],Acid Production Inhibition,oral microorganisms,excellent acid production inhibition
same,Growth Inhibition,[1]; [7],N.S.
same,Growth Inhibition,[1]; [8],97.3 Per Cent
same,Growth Inhibition,[1]; [9],100 Per Cent
same,Growth Inhibition,[1]; [10],N.S.
same,Growth Inhibition,[1]; [11],98 Per Cent
same,Growth Inhibition,[1]; [12],100 Per Cent
same,Growth Inhibition,[1]; [13],N.S.
same,Growth Inhibition,[1]; [14],93 Per cent
same,Growth Inhibition,[1]; [15],> 99.99 Per cent
same,Growth Inhibition,[1]; [16],N.S.
same,Growth Inhibition,[1]; [17],N.S.
same,Growth Inhibition,[1]; [18],99.99 Per cent
same,Growth Inhibition,[1]; [19],0 Per cent
same,Growth Inhibition,[1]; [20],N.S.
same,Growth Inhibition,[1]; [21],100 Per cent
same,Growth Inhibition,[2]; [7],99.3 Per Cent
same,Growth Inhibition,[2]; [8],100 Per Cent
same,Growth Inhibition,[2]; [9],100 Per Cent
same,Growth Inhibition,[2]; [10],99 Per Cent
same,Growth Inhibition,[2]; [11],100 Per Cent
same,Growth Inhibition,[2]; [12],91.4 Per Cent
same,Growth Inhibition,"[2]; in mouthwash, 2 h incubation",99.7 Per cent
same,Growth Inhibition,"[2]; in mouthwash, 5 h incubation",100 Per cent
same,Growth Inhibition,"[2]; in mouthwash, 24 h incubation",99.90 Per cent
same,Growth Inhibition,[2]; [13],98 Per cent
same,Growth Inhibition,[2]; [14],> 99.99 Per cent
same,Growth Inhibition,[2]; [15],> 99 Per cent
same,Growth Inhibition,[2]; [16],N.S.
same,Growth Inhibition,[2]; [17],99.97 Per cent
same,Growth Inhibition,[2]; [18],100 Per cent
same,Growth Inhibition,[2]; [19],N.S.
same,Growth Inhibition,[2]; [20],N.S.
same,Growth Inhibition,[2]; [21],100 Per cent
same,"Caries Extent Reduction, statistical evaluation",[6]; [22],Significant
same,Acid Production Inhibition,Streptococcus sp. FA-1; 0.02 percent,19%
same,Acid Production Inhibition,Streptococcus sp. FA-1; 0.03 percent,39%
same,Acid Production Inhibition,Streptococcus sp. FA-1; 0.04 percent,72%
CC(=O)C=O [Pyruvaldehyde],Acid Production Inhibition,oral microorganisms,excellent acid production inhibition
same,Growth Inhibition,[1]; [7],99.5 Per Cent
same,Growth Inhibition,[1]; [8],100 Per Cent
same,Growth Inhibition,[1]; [9],100 Per Cent
same,Growth Inhibition,[1]; [10],99.4 Per Cent
same,Growth Inhibition,[1]; [11],99.99 Per Cent
same,Growth Inhibition,[1]; [12],100 Per Cent
same,Growth Inhibition,"[1]; in hard candy, 2 h incubation",92 Per Cent
same,Growth Inhibition,"[1]; in hard candy, 5 h incubation",99.85 Per Cent
same,Growth Inhibition,"[1]; in hard candy, 24 h incubation",100 Per Cent
same,Growth Inhibition,[1]; [13],97.5 Per cent
same,Growth Inhibition,[1]; [14],> 99.99 Per cent
same,Growth Inhibition,[1]; [15],> 99.99 Per cent
same,Growth Inhibition,[1]; [16],N.S.
same,Growth Inhibition,[1]; [17],98 Per cent
same,Growth Inhibition,[1]; [18],100 Per cent
same,Growth Inhibition,[1]; [19],N.S.
same,Growth Inhibition,[1]; [20],N.S.
same,Growth Inhibition,[1]; [21],100 Per cent
same,Growth Inhibition,[2]; [7],99.7 Per Cent
same,Growth Inhibition,[2]; [8],99.99 Per Cent
same,Growth Inhibition,[2]; [9],99.98 Per Cent
same,Growth Inhibition,[2]; [10],99.8 Per Cent
same,Growth Inhibition,[2]; [11],100 Per Cent
same,Growth Inhibition,[2]; [12],99.99 Per Cent
same,Growth Inhibition,"[2]; in hard candy, 2 h incubation",99.5 Per Cent
same,Growth Inhibition,"[2]; in hard candy, 5 h incubation",100 Per Cent
same,Growth Inhibition,"[2]; in hard candy, 24 h incubation",N.S.
same,Growth Inhibition,"[2]; in mouthwash, 2 h incubation",99.0 Per cent
same,Growth Inhibition,"[2]; in mouthwash, 5 h incubation",100 Per cent
same,Growth Inhibition,"[2]; in mouthwash, 24 h incubation",99.7 Per cent
same,Growth Inhibition,[2]; [13],> 99.9 Per cent
same,Growth Inhibition,[2]; [14],> 99.99 Per cent
same,Growth Inhibition,[2]; [15],N.S.
same,Growth Inhibition,[2]; [16],N.S.
same,Growth Inhibition,[2]; [17],99.99 Per cent
same,Growth Inhibition,[2]; [18],99.94 Per cent
same,Growth Inhibition,[2]; [19],100 Per cent
same,Growth Inhibition,[2]; [20],N.S.
same,Growth Inhibition,[2]; [21],100 Per cent
same,"Caries Score, Mean Incidence","[6]; 1 percent in diet, L-2000 control 15.08 (pyruvaldehyde test), 13.94 (glycolaldehyde test)",5.95
same,"Caries Score, Mean Extent","[6]; 1 percent in diet, L-2000 control 38.80 (pyruvaldehyde test), 35.38 (glycolaldehyde test)",14.55
same,"Caries Extent Reduction, statistical evaluation",[6]; [22],Significant
same,"Caries Incidence Reduction, statistical evaluation",[6]; [22],Significant
same,Acid Production Inhibition,Streptococcus sp. FA-1; 0.001 percent,10%
same,Acid Production Inhibition,Streptococcus sp. FA-1; 0.002 percent,35%
same,Solubility,,water soluble
same,Acid Production Inhibition,[4]; 0.005 percent,5%
same,Acid Production Inhibition,[4]; 0.007 percent,5%
same,Acid Production Inhibition,[4]; 0.009 percent,7%
same,Acid Production Inhibition,[4]; 0.011 percent,7%
